Reference: patent publication US20150290193A1, “NOVEL APPROACHES FOR INDIVIDUALIZED THERAPY OF PANCREATIC DUCTAL ADENOCARCINOMA” (HI-STEM gGmbH, priority 2012, published 2015)

Legend:
stable PDAC cell lines = assay: Dose-escalation IC50 determination, cell viability by CellTiterBlue; type: cell-based, human; settings: 72 h; 3-fold serial dilutions in quadruplicates
Procedure: For calculation of the IC50, 3-fold serial dilutions of selected compounds were screened in quadruplicates, incubated for 72 h after which cell viability was assessed using CellTiterBlue as described. Raw data was normalized to positive and negative controls present on each individual plate IC50 values were calculated using GraphPad Prism (Graph Pad Software, La Jolla).
For calculation of the IC50 serial dilutions of selected compounds were screened in quadruplicates. In brief, 8,000 cells/well were seeded 24 h prior to addition of individual compounds in 96-well plates. After incubation for 72 h, cell viability was assessed using CellTiterBlue (Promega, Mannheim) as described. Raw data was normalized to positive and negative controls present on each individual plate. IC50 values were calculated using GraphPad Prism (Graph Pad Software, La Jolla).

[1] = system: PACO tumors (transplanted human PDAC tumors); assay: In vivo drug screen, subcutaneous PACO tumors in NSG mice, relative tumor volume; settings: tumors of all three subtypes; 125 mg/kg i.p. twice weekly
Procedure: Three groups of mice that each carried transplanted human tumors of one either the sensitive or the resistant subtypes were treated with Dasatinib, either alone or in combination with the chemotherapeutic agent Gemcitabine.
PACO tumors were established by injecting 5×10^5 cells subcutaneously into a cohort 20 NOD.Cg-Prkdcscid Il2rgtm1Wjl (NSG) mice. After the tumors reached a size of approx. 200 mm^3, mice were randomized into two groups of each 10 mice—Control, Gemcitabine, Dasatinib or combination of both. Gemcitabine was dissolved in 0.8% buffered saline and administered twice weekly at 125 mg/kg i.p. Dasatinib was prepared in citrate/citric acid buffer (pH 3) and administered daily via oral gavage at 25 mg/kg. Tumor volume was determined twice weekly via caliper measurements and calculated according the formula (length×height×width)×(π/6). Relative tumor growth was calculated for each individual tumor in relation to the volume calculated as of the start of the experiment.
Tumor size is expressed as relative volume normalized to the day of start of treatment.

SMILES | fold lower IC50 value of the classical subtype versus exocrine-like and quasi-mesenchymal PDAC cells (stable PDAC cell lines) | tumor growth, Gemcitabine alone [1]
Cc1nc(Nc2ncc(C(=O)Nc3c(C)cccc3Cl)s2)cc(N2CCN(CCO)CC2)n1 [Dasatinib] | > 10,000 fold | –
Nc1ccn([C@@H]2O[C@H](CO)[C@@H](O)C2(F)F)c(=O)n1 [Gemcitabine] | – | growth-inhibitory effect on tumors of all three subtypes, however did not lead to a complete stop in tumor growth
